The results in this text go back to paper PMC6271041, “Synthesis and Biological Evaluation of Novel 2-Arylalkylthio-5-iodine-6-substituted-benzyl-pyrimidine-4(3H)-ones as Potent HIV-1 Non-Nucleoside Reverse Transcriptase Inhibitors” (Molecules, 2014).

One data set has as its system HIV-1SF33. Description: Inhibitory activity on HIV-1SF33 infection in TZM-bl cells (p24 ELISA). The data set is classed as cell-based. The note with it: Human immunodeficiency virus 1, 168 h, read-out: EC50 /SF33, concentration inhibiting 50% viral replication, HIV-1SF33 infection in TZM-bl cell line, 7 days. On the procedure:
TZM-bl cells, HIV-1SF33 were obtained from the NIH AIDS Research and Reference Reagent Program (Germantown, MD, USA). The inhibitory activity of the compounds on infection by a laboratory-adapted HIV-1 strain SF33 was tested in TZM-bl cells. Briefly, TZM-bl cells (4 × 10^4/well) were infected by addition of 200 TCID50 of HIV-1, followed by incubation for 2 h at 37 °C before addition of compounds at serial dilutions.

The next data set addresses T1, HIV-1 RT (Human immunodeficiency virus type 1 group M subtype B, UniProt P04585).
T1 construct: The biotin-dUTP was incorporated by reverse transcriptase (Sigma, St. Louis, MO, USA); purchased Sigma
Description: Inhibitory activity against HIV-1 RT (biotin-dUTP incorporation, colorimetric). Format: biochemical. The note with it: for IC50: mean of three separate experiments, variation less than 15%. The method, then: Oligo(dT) (TaKaRa Co., Otsu, Japan) was immobilized via its 5'-terminal phosphate to Covalink-NH microtiter plates (NUNC Co., Roskilde, Denmark). The biotin-dUTP was incorporated by reverse transcriptase (Sigma, St. Louis, MO, USA). Briefly, a serial concentration of inhibitor was added to the mixture, which contained 50 mmol/L Tris-HCl (pH 8.3), 3 mmol/L MgCl2, 75 mmol/L KCl, 5 mmol/L DTT, 0.13 mg/mL BSA, 10 μg/mL poly (A), 0.75 μM biotin-11-Dutp, 1.5 μM dTTP and HIV-1 RT. After incubation at 37 °C for 1h, washing buffer, which contained 50 mmol/L Tris-HCl (pH 7.5), 0.15 mol/L NaCl, 0.05 mmol/L MgCl2 and 0.02% Tween20, was used to wash the plate. Then each well of the plate was added […] 1% BSA and incubated at room temperature for another 30 min. The plate was washed with the same buffer for 3 times. Before further incubation at 37 °C for 1 h, 50 μL of alkaline phosphatase streptavidin (SA-ALP) solution (100 ng/mL) was added to each well and washed again as above. Finally, 50 μL of p-nitrophenyl phosphate, disodium (PNPP, 1 mg/mL, pH 9.5) was added and incubated at 37 °C for 30 min. 0.5 mol/L NaOH was added to stop the reaction and a colorimetric streptavidin-alkaline phosphatase reporter system was used to detect and quantify the result.

As for `Cc1cc(C)cc(Cc2nc(SCCc3ccc([N+](=O)[O-])cc3)[nH]c(=O)c2I)c1` [8n, 2-(4-Nitrophenethylthio)-5-iodine-6-(3,5-dimethylbenzyl)uracil], the melting point fell in the range of 220 to 221 °C. Moreover, in the data set with HIV-1SF33, the EC50 stood at 3.84 µM. For the same compound, on HIV-1 RT, the “fold more active compared to nevirapine (HIV-1 RT IC50)” value is given as “about 10 fold” and half-maximal inhibition (IC50) was put at 0.7 µM.
In the same order, the values of `CC(=O)c1ccc(CSc2nc(Cc3cc(C)cc(C)c3)c(I)c(=O)[nH]2)cc1` [8h, 2-(4-Acetylbenzylthio)-5-iodine-6-(3,5-Dimethylbenzyl)uracil] are 201 to 203 °C, 1.06 µM, “about 10 fold” and 0.41 µM.
For the compound `Cc1cc(C)cc(Cc2nc(SCCOc3ccc([N+](=O)[O-])cc3)[nH]c(=O)c2I)c1` [8q], the melting point was 215 to 218 °C. Also, the EC50 in the data set with HIV-1SF33 is 9.44 µM. Half-maximal inhibition on HIV-1 RT (IC50) required 1.31 µM.
For the compound `Cc1cc(C)cc(Cc2cc(=O)[nH]c(SCCOc3ccc([N+](=O)[O-])cc3)n2)c1` [7q, 2-(2-(4-Nitrophenoxy)ethylthio)-6-(3,5-dimethylbenzyl)uracil], the melting point was 210 to 214 °C. The EC50 in the data set with HIV-1SF33 is 5.07 µM. This compound displayed an IC50 at HIV-1 RT of 0.59 µM.
In the case of `CC(=O)c1ccc(CSc2nc(Cc3cc(F)cc(F)c3)c(I)c(=O)[nH]2)cc1` [8i, 2-(4-Acetylbenzylthio)-5-iodine-6-(3,5-difluorobenzyl)uracil], the melting point lay in the range of 205 to 206 °C. For the same compound, at HIV-1 RT, it took 4.03 µM to reach half-maximal inhibition (IC50).
Compound `O=c1cc(Cc2ccccc2)nc(SCc2ccc([N+](=O)[O-])cc2)[nH]1` [7a, 2-(4-Nitrobenzylthio)-6-benzyluracil] gave a melting point of 192 to 194 °C. Further, at HIV-1 RT, the IC50 was > 100 µM.
`Cc1cc(C)cc(Cc2cc(=O)[nH]c(SCCc3ccc([N+](=O)[O-])cc3)n2)c1` [7n, 2-(4-Nitrophenethylthio)-6-(3,5-dimethylbenzyl)uracil] gave a melting point of 212 to 215 °C. The EC50 with HIV-1SF33 turned out to be 6.12 µM. Also, the IC50 against HIV-1 RT was 1.4 µM.
In the case of `O=c1cc(Cc2ccccc2)nc(SCOCc2ccccc2)[nH]1` [7v, 2-(Benzyloxymethylthio)-6-benzyluracil], the melting point lay within 118 to 120 °C. The IC50 on HIV-1 RT worked out at 12.9 µM.
As to `O=c1[nH]c(SCCOc2ccc([N+](=O)[O-])cc2)nc(Cc2cc(F)cc(F)c2)c1I` [8r, 2-(2-(4-Nitrophenoxy)ethylthio)-5-Iodine-6-(3,5-difluorobenzyl)uracil], the melting point is 224 to 226 °C. Besides, in the data set with HIV-1SF33, the EC50 worked out at 4.1 µM. For the same compound, at HIV-1 RT, the IC50 was determined as 2.56 µM.
As for `Cc1ccnc2c1NC(=O)c1cccnc1N2C1CC1` [nevirapine, reference compound], the EC50 with HIV-1SF33 is 0.19 µM.
The compound `CC(=O)c1ccc(CSc2nc(Cc3ccccc3)c(I)c(=O)[nH]2)cc1` [8g, 2-(4-Acetylbenzylthio)-5-iodine-6-benzyluracil] came in with a melting point of 219 to 220 °C. Also, the IC50 against HIV-1 RT is 13.8 µM.
In the same order, the values of `O=c1[nH]c(SCCc2ccc([N+](=O)[O-])cc2)nc(Cc2cc(F)cc(F)c2)c1I` [8o, 2-(4-Nitrophenethylthio)-5-iodine-6-(3,5-difluorobenzyl)uracil] are 220 to 221 °C and 6.88 µM.
